Tests used:
[1] = biological target: T1, Avi-KRAS WT (1-169) GppNHp/RAF1 RBD-3xFLAG (52-151) (Homo sapiens, UniProt P01116); test: Raf1-KRAS WT-GppNHP disruption HTRF assay (Biological Example 1); assay type: binding; details: KRAS WT, GppNHp-loaded; class symbols
T1 construct: Avi-KRAS WT (1-169)
Summary of the method: (§1)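 Compound disruption of KRAS-GppNHp/RAF1 RBD binding read by HTRF after two sequential 1 h room-temperature incubations (protein mix, then detection reagents), shaken at 700 rpm. Buffer Tris pH 7.5 with MgCl2, BSA, Tween and 10% DMSO; results given as percent activity relative to DMSO (100%).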

[2] = biological target: T2, Avi-KRAS G12R (1-169) GppNHp/RAF1 RBD-3xFLAG (52-151) (Homo sapiens, UniProt P01116, G12R); test: Raf1-KRAS G12R-GppNHP disruption HTRF assay (Biological Example 1); assay type: binding; details: KRAS G12R, GppNHp-loaded; class symbols
T2 construct: Avi-KRAS G12R (1-169)
T2 sequence (P01116 1-169 isoform P01116-2 G12R): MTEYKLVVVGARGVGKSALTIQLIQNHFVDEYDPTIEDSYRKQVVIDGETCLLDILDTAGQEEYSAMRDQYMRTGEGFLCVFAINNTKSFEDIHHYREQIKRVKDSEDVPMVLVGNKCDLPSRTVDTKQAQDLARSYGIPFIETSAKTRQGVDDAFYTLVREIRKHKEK
Summary of the method: as §1

[3] = biological target: T3, Avi-KRAS G12D (1-169) GppNHp/RAF1 RBD-3xFLAG (52-151) (Homo sapiens, UniProt P01116, G12D); test: Raf1-KRAS G12D-GppNHP disruption HTRF assay (Biological Example 1); assay type: binding; details: KRAS G12D, GppNHp-loaded; class symbols
T3 construct: Avi-KRAS G12D (1-169)
T3 sequence (P01116 1-169 isoform P01116-2 G12D): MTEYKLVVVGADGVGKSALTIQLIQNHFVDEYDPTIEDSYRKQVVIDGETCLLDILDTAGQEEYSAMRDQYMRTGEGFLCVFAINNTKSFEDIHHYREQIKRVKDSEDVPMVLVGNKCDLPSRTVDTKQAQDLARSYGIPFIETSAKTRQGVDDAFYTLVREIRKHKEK
Summary of the method: as §1

[4] = biological target: T4, Avi-KRAS G12V (1-169) GppNHp/RAF1 RBD-3xFLAG (52-151) (Homo sapiens, UniProt P01116, G12V); test: Raf1-KRAS G12V-GppNHP disruption HTRF assay (Biological Example 1); assay type: binding; details: KRAS G12V, GppNHp-loaded; class symbols
T4 construct: Avi-KRAS G12V (1-169)
T4 sequence (P01116 1-169 isoform P01116-2 G12V): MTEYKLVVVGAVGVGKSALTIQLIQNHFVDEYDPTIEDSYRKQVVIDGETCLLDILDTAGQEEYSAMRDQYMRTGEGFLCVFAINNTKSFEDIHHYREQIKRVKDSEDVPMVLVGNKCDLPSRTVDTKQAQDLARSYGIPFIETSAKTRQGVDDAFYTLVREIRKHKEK
Summary of the method: as §1

SW620 cells (KRAS G12V) = test: Cell-based pERK HTRF assay in SW620 cell (Biological Example 4); details: Homo sapiens, SW-620, SW620 (KRAS G12V) cells, pERK HTRF; class symbols
Summary of the method: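 SW620 (KRAS G12V) cells seeded at 3×10^4/well in RPMI, 10% FBS, then treated next day for 4 h with a 9-point half-log series from 1 μM top (0.25% DMSO). Lysates analyzed for pERK by HTRF (Eu cryptate/d2 antibodies, 4–24 h at room temperature), excitation 320 nm, emission 615 nm.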

GP2d cells (KRAS G12D) = test: Cell-based pERK HTRF assay in GP2d cell (Biological Example 2); details: GP2d, GP2d (KRAS G12D) cells, pERK HTRF; class symbols
Summary of the method: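 Cells grown in DMEM with 10% FBS were exposed to compound for 60 min at 0.25% DMSO, using a 9-point half-log series starting at 1 μM or 100 nM. Lysates were then mixed with d2 and Eu cryptate antibodies for 4–24 h at room temperature, and pERK was read by HTRF.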

T1 sequence (P01116 1-169 isoform P01116-2): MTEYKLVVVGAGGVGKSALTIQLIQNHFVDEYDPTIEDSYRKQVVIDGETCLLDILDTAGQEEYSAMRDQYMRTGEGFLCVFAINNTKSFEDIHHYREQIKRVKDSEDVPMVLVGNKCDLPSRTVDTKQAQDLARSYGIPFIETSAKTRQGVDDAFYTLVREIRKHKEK

Row | Compound | IC50 [1] | IC50 [2] | IC50 [3] | IC50 [4] | IC50 (SW620 cells (KRAS G12V)) | IC50 (GP2d cells (KRAS G12D))
1 | CCN(c1nc(OC[C@@]23CCCN2C[C@H](F)C3)nc2c(F)c(-c3ccc(F)c4sc(N)c(C#N)c34)c(C(F)(F)F)cc12)[C@H]1CCN(C(=O)OC2CCN(C(C)=O)CC2)C1 (atropisomer, axis not shown) [Compound 720] | < 100 nM | < 100 nM | < 100 nM | < 100 nM | < 100 nM | < 100 nM
2 | CCN(c1nc(OC[C@@]23CCCN2C[C@H](F)C3)nc2c(F)c(-c3ccc(F)c4sc(N)c(C#N)c34)c(C(F)(F)F)cc12)[C@H]1CCN(C(=O)OC2CN(C(C)=O)C2)C1 (atropisomer, axis not shown) [Compound 721] | < 100 nM | < 100 nM | < 100 nM | < 100 nM | < 100 nM | < 100 nM
3 | CCN(c1nc(OC[C@@]23CCCN2C[C@H](F)C3)nc2c(F)c(-c3ccc(F)c4sc(N)c(C#N)c34)c(C(F)(F)F)cc12)[C@H]1CCN(C(=O)c2ccsn2)C1 (atropisomer, axis not shown) [Compound 722] | < 100 nM | < 100 nM | < 100 nM | < 100 nM | < 100 nM | < 100 nM
4 | CCN(c1nc(OC[C@@]23CCCN2C[C@H](F)C3)nc2c(F)c(-c3ccc(F)c4sc(N)c(C#N)c34)c(C(F)(F)F)cc12)[C@H]1CCN(C(=O)c2ccnn2C)C1 (atropisomer, axis not shown) [Compound 723] | < 100 nM | < 100 nM | < 100 nM | < 100 nM | < 100 nM | < 100 nM
5 | CCN(c1nc(OC[C@@]23CCCN2C[C@H](F)C3)nc2c(F)c(-c3ccc(F)c4sc(N)c(C#N)c34)c(C(F)(F)F)cc12)[C@H]1CCN(C(=O)c2ccn(C)n2)C1 (atropisomer, axis not shown) [Compound 724] | < 100 nM | < 100 nM | < 100 nM | < 100 nM | < 100 nM | < 100 nM
6 | CCN(c1nc(OC[C@@]23CCCN2C[C@H](F)C3)nc2c(F)c(-c3ccc(F)c4sc(N)c(C#N)c34)c(C(F)(F)F)cc12)[C@H]1CCN(C(=O)c2cn(C)nn2)C1 (atropisomer, axis not shown) [Compound 725] | < 100 nM | < 100 nM | < 100 nM | < 100 nM | < 100 nM | < 100 nM
7 | CCN(c1nc(OC[C@@]23CCCN2C[C@H](F)C3)nc2c(F)c(-c3ccc(F)c4sc(N)c(C#N)c34)c(C(F)(F)F)cc12)[C@H]1CCN(C(=O)c2cncnc2)C1 (atropisomer, axis not shown) [Compound 727] | 100 to 1000 nM | < 100 nM | < 100 nM | 100 to 1000 nM | < 100 nM | < 100 nM
8 | CN(C)C(=O)N1CC[C@H]2[C@@H]1CN2c1nc(OC[C@@]23CCCN2C[C@H](F)C3)nc2c(F)c(-c3ccc(F)c4sc(N)c(C#N)c34)c(C(F)(F)F)cc12 (atropisomer, axis not shown) [Compound 728] | 1000 to 10000 nM | 1000 to 10000 nM | 1000 to 10000 nM | 1000 to 10000 nM | 100 to 1000 nM | 100 to 1000 nM
9 | CCN(c1nc(OC[C@@]23CCCN2C[C@H](F)C3)nc2c(F)c(-c3ccc(F)c4sc(N)c(C#N)c34)c(C(F)(F)F)cc12)[C@H]1CCN(C(=O)c2cnsc2)C1 (atropisomer, axis not shown) [Compound 729] | < 100 nM | < 100 nM | < 100 nM | < 100 nM | < 100 nM | < 100 nM
10 | CCN(c1nc(OC[C@@]23CCCN2C[C@H](F)C3)nc2c(F)c(-c3ccc(F)c4sc(N)c(C#N)c34)c(C(F)(F)F)cc12)[C@H]1CCN(C(=O)c2ccncn2)C1 (atropisomer, axis not shown) [Compound 730] | < 100 nM | < 100 nM | < 100 nM | < 100 nM | < 100 nM | < 100 nM
11 | CCN(c1nc(OC[C@@]23CCCN2C[C@H](F)C3)nc2c(F)c(-c3ccc(F)c4sc(N)c(C#N)c34)c(C(F)(F)F)cc12)[C@H]1CCN(C(=O)c2cnnn2C)C1 (atropisomer, axis not shown) [Compound 733] | 100 to 1000 nM | 100 to 1000 nM | < 100 nM | 100 to 1000 nM | < 100 nM | < 100 nM
12 | CCN(c1nc(OC[C@@]23CCCN2C[C@H](F)C3)nc2c(F)c(-c3ccc(F)c4sc(N)c(C#N)c34)c(C(F)(F)F)cc12)[C@H]1C[C@@H](C)N(C(=O)N2CC(OC)C2)C1 (atropisomer, axis not shown) [Compound 734] | 100 to 1000 nM | 100 to 1000 nM | 100 to 1000 nM | 100 to 1000 nM | < 100 nM | < 100 nM
13 | CCN(c1nc(OC[C@@]23CCCN2C[C@H](F)C3)nc2c(F)c(-c3ccc(F)c4sc(N)c(C#N)c34)c(C(F)(F)F)cc12)[C@H]1CCN(C(=O)[C@H]2CCCO2)C1 (atropisomer, axis not shown) [Compound 735] | < 100 nM | < 100 nM | < 100 nM | < 100 nM | < 100 nM | < 100 nM
14 | Cc1ccc(CN(C)c2nc(OC[C@@]34CCCN3C[C@H](F)C4)nc3c(F)c(-c4ccc(F)c5sc(N)c(C#N)c45)c(C(F)(F)F)cc23)c(N)n1 (atropisomer, axis not shown) [Compound 736] | 1000 to 10000 nM | 100 to 1000 nM | 100 to 1000 nM | 100 to 1000 nM | 100 to 1000 nM | < 100 nM
15 | CCN(c1nc(OC[C@@]23CCCN2C[C@H](F)C3)nc2c(F)c(-c3ccc(F)c4sc(N)c(C#N)c34)c(C(F)(F)F)cc12)[C@H]1C[C@H](C)N(C(=O)[C@H](C)OC)C1 (atropisomer, axis not shown) [Compound 739] | < 100 nM | < 100 nM | < 100 nM | 100 to 1000 nM | < 100 nM | < 100 nM
16 | CN(C)C(=O)N1CC[C@H](N(c2nc(OC[C@@]34CCCN3C[C@H](F)C4)nc3c(F)c(-c4ccc(F)c5sc(N)c(C#N)c45)c(C(F)(F)F)cc23)C2CC2)C1 (atropisomer, axis not shown) [Compound 743] | 100 to 1000 nM | 100 to 1000 nM | 100 to 1000 nM | 100 to 1000 nM | < 100 nM | < 100 nM
17 | CCN(c1nc(OC[C@@]23CCCN2C[C@H](F)C3)nc2c(F)c(-c3ccc(F)c4sc(N)c(C#N)c34)c(C(F)(F)F)cc12)[C@H]1CCN(C(=O)[C@@H]2CCCO2)C1 (atropisomer, axis not shown) [Compound 745] | < 100 nM | < 100 nM | < 100 nM | < 100 nM | < 100 nM | < 100 nM
18 | CCN(c1nc(OC[C@@]23CCCN2C[C@H](F)C3)nc2c(F)c(-c3ccc(F)c4sc(N)c(C#N)c34)c(C(F)(F)F)cc12)[C@H]1CCN(C(=O)[C@H](C)CO)C1 (atropisomer, axis not shown) [Compound 746] | < 100 nM | < 100 nM | < 100 nM | < 100 nM | < 100 nM | < 100 nM
19 | CCN(c1nc(OC[C@@]23CCCN2C[C@H](F)C3)nc2c(F)c(-c3ccc(F)c4sc(N)c(C#N)c34)c(C(F)(F)F)cc12)[C@H]1C[C@H](C)N(C(=O)[C@@H](C)OC)C1 (atropisomer, axis not shown) [Compound 747] | 100 to 1000 nM | 100 to 1000 nM | 100 to 1000 nM | 100 to 1000 nM | < 100 nM | < 100 nM
